Laboratory results reported in DBAASP.
Values after ≈ are worked out from the molar mass of the structure shown. Values joined by “and” are separate entries in the source; they are usually repeats but may differ in a detail not shown here. Equal entries are not always repeated.

How the values were obtained:
Assay in all cases: ≥ marks a high value that may be exact or a test limit, other limits are often not marked, values filed in µg/mL are converted to µM
[1] = test system: Staphylococcus aureus ATCC 12600
[2] = test system: Escherichia coli ATCC 11775
[3] = test system: Candida albicans ATCC 14053
[4] = test system: Micrococcus luteus ATCC 49732
[5] = test system: Candida albicans NCTC 1467
[6] = test system: Escherichia coli NCTC 10418
[7] = test system: Staphylococcus aureus NCTC 12493
[8] = test system: Klebsiella pneumoniae ATCC 43816
[9] = test system: Staphylococcus aureus NCTC 10788
[10] = test system: Pseudomonas aeruginosa ATCC 27853
[11] = test system: Pseudomonas aeruginosa PAO1
[12] = test system: Pseudomonas aeruginosa 253
[13] = test system: Pseudomonas aeruginosa 910
[14] = test system: Pseudomonas aeruginosa 919
[15] = test system: Enterococcus faecalis ATCC 29212
[16] = test system: Staphylococcus epidermidis KCTC 1917
[17] = test system: Escherichia coli ATCC 25922
[18] = test system: Pseudomonas aeruginosa ATCC 15422
[19] = test system: Candida albicans ATCC 10231
[20] = test system: Pseudomonas aeruginosa ATCC 10145
Escherichia coli MG1655 = test system: Escherichia coli MG1655
[21] = test system: Staphylococcus aureus ATCC 25923
[22] = test system: Klebsiella pneumoniae ATCC 700603
[23] = test system: Trichophyton rubrum ATCC 28189
[24] = test system: Candida albicans ATCC 24433
Escherichia coli = test system: Escherichia coli
Staphylococcus aureus = test system: Staphylococcus aureus
[25] = test system: Candida parapsilosis ATCC 22019
[26] = test system: Enterococcus faecalis NCTC 12697
[27] = test system: Salmonella enterica serovar Typhimurium
[28] = test system: Staphylococcus epidermidis
Escherichia coli UB1005 = test system: Escherichia coli UB1005
[29] = test system: Pseudomonas aeruginosa H103
Candida albicans = test system: Candida albicans

CC(C)C[C@H](NC(=O)[C@H](CO)NC(=O)[C@@H](NC(=O)[C@@H](N)CCC(=O)O)C(C)C)C(=O)N[C@@H](CC(N)=O)C(=O)N[C@@H](CO)C(=O)NCC(=O)N[C@@H](Cc1ccc(O)cc1)C(=O)N[C@@H](Cc1ccc(O)cc1)C(=O)O [EVSLNSGYY]
MIC [1]: ≥ 97 µM | MIC [2]: ≥ 97 µM | MIC [3]: ≥ 291 µM | MIC [4]: ≥ 97 µM

CC[C@H](C)[C@@H]1NC(=O)[C@H](CC(C)C)NC(=O)[C@@H](NC(=O)[C@@H](NC(=O)[C@@H](NC(=O)[C@H](C)NC(=O)CNC(=O)[C@H](CC(C)C)NC(=O)[C@H](C)NC(=O)[C@@H](N)Cc2ccccc2)C(C)C)[C@@H](C)O)CSSC[C@@H](C(=O)N[C@@H](CCCCN)C(=O)N[C@H](C(=O)N[C@@H](CC(C)C)C(=O)N2CCC[C@H]2C(=O)N[C@@H](CCCCN)C(=O)N[C@@H](CC(C)C)C(=O)N[C@@H](Cc2ccccc2)C(=O)O)C(C)C)NC(=O)[C@H](CCCCN)NC(=O)[C@H]([C@@H](C)O)NC(=O)[C@H](CCCN=C(N)N)NC1=O [FALGAVTCLIRTKCKVLPKLF]
MIC [5]: ≥ 128 µM | MIC [6]: ≥ 64 µM | MIC [7]: ≥ 128 µM | MIC [8]: ≥ 128 µM | MIC [9]: ≥ 128 µM | MIC [10]: > 128 µM

CC[C@H](C)[C@H](NC(=O)[C@@H](N)Cc1ccccc1)C(=O)N[C@@H](CCCCN)C(=O)N[C@@H](Cc1c[nH]c2ccccc12)C(=O)N[C@@H](CCCN=C(N)N)C(=O)N[C@@H](Cc1ccccc1)C(=O)N[C@@H](CCCN=C(N)N)C(=O)N[C@@H](CCCN=C(N)N)C(=O)N[C@@H](Cc1c[nH]c2ccccc12)C(=O)N[C@@H](CCCCN)C(=O)N[C@@H](CCCCN)C(=O)N[C@@H](CCCN=C(N)N)C(=O)N[C@H](C(N)=O)[C@@H](C)O [FIKWRFRRWKKRT]
MIC [11]: 4 µM (≈ 7.63 µg/mL) | MIC [12]: 16 µM (≈ 30.5 µg/mL) | MIC [13]: 8 µM (≈ 15.3 µg/mL) | MIC [14]: ≥ 32 µM

CC[C@H](C)[C@H](N)C(=O)N[C@@H](CC(C)C)C(=O)N[C@@H](CCCCN)C(=O)N[C@@H](Cc1c[nH]c2ccccc12)C(=O)N[C@@H](CCCCN)C(=O)N[C@H](C(=O)N[C@@H](CCCCN)C(=O)N[C@@H](Cc1c[nH]c2ccccc12)C(=O)N[C@@H](Cc1c[nH]c2ccccc12)C(=O)N[C@@H](CCCCN)C(=O)N[C@@H](Cc1c[nH]c2ccccc12)C(=O)N[C@@H](Cc1ccccc1)C(=O)N[C@@H](CCCN=C(N)N)C(N)=O)[C@@H](C)O [ILKWKTKWWKWFR]
MIC [11]: 2 µM (≈ 3.81 µg/mL) | MIC [12]: 4 µM (≈ 7.62 µg/mL) | MIC [13]: 4 µM (≈ 7.62 µg/mL) | MIC [14]: 16 µM (≈ 30.5 µg/mL)

CC(C)C[C@H](NC(=O)CNC(=O)[C@H](Cc1ccc(O)cc1)NC(=O)[C@H](C)NC(=O)[C@@H]1CCCN1C(=O)[C@H](CC(C)C)NC(=O)[C@H](CCC(=O)O)NC(=O)[C@H](Cc1ccccc1)NC(=O)[C@H](Cc1cnc[nH]1)NC(=O)[C@H](CO)NC(=O)[C@@H](N)CCCCN)C(=O)O [KSHFELPAYGL]
MIC [15]: 422 µM and 405 µM and 252 µM | MIC [16]: ≥ 267 µM | MIC [17]: > 500 µM | MIC [18]: ≥ 500 µM | MIC [19]: > 500 µM

CC(C)C[C@H](NC(=O)[C@H](Cc1c[nH]c2ccccc12)NC(=O)[C@H](Cc1cnc[nH]1)NC(=O)[C@H](CCCCN)NC(=O)[C@H](CC(C)C)NC(=O)[C@H](C)NC(=O)[C@H](CC(C)C)NC(=O)[C@H](CCCCN)NC(=O)CNC(=O)[C@@H](NC(=O)[C@@H](NC(=O)[C@@H](N)CCCCN)[C@@H](C)O)C(C)C)C(=O)O [KTVGKLALKHWL]
MIC [20]: 15 µM (≈ 20.9 µg/mL) | MIC (Escherichia coli MG1655): 15 µM (≈ 20.9 µg/mL) | MIC [21]: > 15 µM | MIC [22]: > 15 µM

CC(C)[C@H](NC(=O)[C@H](C)NC(=O)[C@@H](NC(=O)CNC(=O)[C@@H]1CCCN1)[C@@H](C)O)C(=O)N[C@@H](Cc1ccccc1)C(=O)N[C@@H](CCCCN)C(=O)O [PGTAVFK]
MIC [1]: 31 µM (≈ 22.3 µg/mL) | MIC [2]: 31 µM (≈ 22.3 µg/mL) | MIC [3]: ≥ 201 µM | MIC [4]: 31 µM (≈ 22.3 µg/mL)

CC[C@H](C)[C@H](NC(=O)[C@H](CC(C)C)NC(=O)[C@H](CO)NC(=O)[C@@H](N)CCCN=C(N)N)C(=O)N[C@H](C(=O)N[C@@H](Cc1cnc[nH]1)C(=O)N[C@@H](CCC(N)=O)C(=O)N[C@@H](CCCN=C(N)N)C(=O)N[C@@H](CC(C)C)C(=O)N[C@@H](Cc1ccccc1)C(N)=O)C(C)C [RSLIVHQRLF]
MIC [23]: ≥ 315 µM | MIC [24]: ≥ 315 µM | MIC (Escherichia coli): > 315 µM | MIC (Staphylococcus aureus): > 315 µM | MIC [25]: ≥ 315 µM

CSCC[C@H](NC(=O)[C@H](CCC(=O)O)NC(=O)[C@H](CCCCN)NC(=O)[C@H](CC(C)C)NC(=O)[C@H](CCCCN)NC(=O)CNC(=O)[C@H](Cc1c[nH]c2ccccc12)NC(=O)[C@H](CC(C)C)NC(=O)[C@@H](N)CO)C(=O)N[C@@H](CC(C)C)C(=O)N[C@@H](C)C(=O)N[C@@H](C)C(=O)N[C@@H](C)C(=O)NCC(=O)N[C@@H](CCCCN)C(=O)N[C@@H](C)C(=O)N[C@H](C(=O)N[C@@H](C)C(=O)N[C@@H](CC(N)=O)C(=O)N[C@@H](C)C(=O)N[C@H](C(=O)N[C@@H](CC(N)=O)C(=O)NCC(=O)N[C@@H](CC(C)C)C(=O)N[C@@H](C)C(=O)N[C@@H](CC(N)=O)C(=O)N[C@@H](CCC(N)=O)C(N)=O)C(C)C)C(C)C [SLWGKLKEMLAAAGKAVANAVNGLANQ]
MIC [5]: ≥ 64 µM | MIC [6]: 8 µM (≈ 21.8 µg/mL) | MIC [7]: 16 µM (≈ 43.6 µg/mL) | MIC [8]: ≥ 32 µM | MIC [26]: ≥ 32 µM | MIC [9]: 8 µM (≈ 21.8 µg/mL) | MIC [10]: 32 µM (≈ 87.2 µg/mL)

CC[C@H](C)[C@H](NC(=O)[C@H](CC(C)C)NC(=O)[C@H](C)NC(=O)[C@H](CO)NC(=O)[C@H](CCCN=C(N)N)NC(=O)[C@@H](N)CO)C(=O)N[C@H](C(=O)N[C@@H](Cc1cnc[nH]1)C(=O)N[C@@H](CCC(N)=O)C(=O)N[C@@H](CCCN=C(N)N)C(=O)N[C@@H](CC(C)C)C(=O)N[C@@H](Cc1ccccc1)C(N)=O)C(C)C [SRSALIVHQRLF]
MIC [23]: ≥ 280 µM | MIC [24]: ≥ 280 µM | MIC (Escherichia coli): > 280 µM | MIC (Staphylococcus aureus): > 280 µM | MIC [25]: ≥ 280 µM

CC[C@H](C)[C@H](NC(=O)[C@H](CCCN=C(N)N)NC(=O)[C@H](Cc1c[nH]c2ccccc12)NC(=O)[C@H](CCCN=C(N)N)NC(=O)[C@@H](N)C(C)C)C(=O)N[C@@H](CCCN=C(N)N)C(=O)N[C@H](C(=O)N[C@@H](C)C(=O)N[C@H](C(=O)N[C@H](C(=O)N[C@@H](CCCN=C(N)N)C(=O)N[C@@H](C)C(=O)O)[C@@H](C)CC)C(C)C)C(C)C [VRWRIRVAVIRA]
MIC [11]: 8 µM (≈ 12 µg/mL) | MIC [12]: 16 µM (≈ 23.9 µg/mL) | MIC [13]: 16 µM (≈ 23.9 µg/mL) | MIC [27]: 4.01 µM (≈ 6 µg/mL) | MIC [28]: 1.07 µM (≈ 1.6 µg/mL) | MIC [21]: 8.03 µM (≈ 12 µg/mL) | MIC [14]: 8 µM (≈ 12 µg/mL) | MIC (Escherichia coli UB1005): 1.07 µM (≈ 1.6 µg/mL) | MIC [29]: 4.01 µM (≈ 6 µg/mL) | MIC (Candida albicans): 8.03 µM (≈ 12 µg/mL)
